Reference: PubChem BioAssay AID248 (DTP/NCI, 2004)
Values joined by “and” are separate entries in the source; they are usually repeats but may differ in a detail not shown here. Identical values can stand only once. Inconclusive results and toxic doses are left out.

Test system: L1210 leukemia ip in BDF1 mice, survival T/C
Test: NCI In Vivo Anticancer Drug Screen. Data for tumor model L1210 Leukemia (intraperitoneal) in B6D2F1 (BDF1) mice
Settings: endpoint: mean survival time, higher = longer survival
How it was run: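 Mice bearing the transplanted tumor received compound or vehicle. Survival of the treated group was divided by that of the vehicle-treated control group to give the ratio.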

[1] = dose: 7.0 mg/kg/injection, schedule: Q01DX Z (ip), vehicle: saline
[2] = dose: 15.0 mg/kg/injection, schedule: Q01DX Z (ip), vehicle: saline
[3] = dose: 100.0 mg/kg/injection, schedule: Q04DX003 (ip), vehicle: Klucel (hydroxypropylcellulose) (HPC)
[4] = dose: 200.0 mg/kg/injection, schedule: Q04DX003 (ip), vehicle: Klucel (hydroxypropylcellulose) (HPC)
[5] = dose: 100.0 mg/kg/injection, schedule: Q01DX001 (ip), vehicle: saline with Tween-80
[6] = dose: 200.0 mg/kg/injection, schedule: Q01DX001 (ip), vehicle: saline with Tween-80
[7] = dose: 400.0 mg/kg/injection, schedule: Q01DX001 (ip), vehicle: saline with Tween-80
[8] = dose: 100.0 mg/kg/injection, schedule: Q01DX009 (ip), vehicle: saline with Tween-80
[9] = dose: 100.0 mg/kg/injection, schedule: Q04DX003 (ip), vehicle: saline with Tween-80
[10] = dose: 200.0 mg/kg/injection, schedule: Q01DX009 (ip), vehicle: saline with Tween-80
[11] = dose: 200.0 mg/kg/injection, schedule: Q04DX003 (ip), vehicle: saline with Tween-80
[12] = dose: 400.0 mg/kg/injection, schedule: Q01DX009 (ip), vehicle: saline with Tween-80
[13] = dose: 400.0 mg/kg/injection, schedule: Q04DX003 (ip), vehicle: saline with Tween-80
[14] = dose: 400.0 mg/kg/injection, schedule: Q04DX003 (ip), vehicle: Klucel (hydroxypropylcellulose) (HPC)

In the case of `O=C(Nc1ccc(NC(=O)Nc2cccc(C3=NCCN3)c2)cc1)Nc1cccc(C2=NCCN2)c1`, the T/C (dose: 3.5 mg/kg/injection, schedule: Q#A X Z (ip), vehicle: saline) is reported as 106 % of control, the T/C [1] is reported as 115 % of control and the T/C (dose: 7.5 mg/kg/injection, schedule: Q01DX006 (iv), vehicle: saline) is reported as 98 % of control. For the same molecule, the T/C (dose: 7.5 mg/kg/injection, schedule: Q#A X Z (ip), vehicle: saline) was 117 % of control, the T/C (dose: 15.0 mg/kg/injection, schedule: Q01DX006 (iv), vehicle: saline) was 107 % of control and the T/C [2] was 111 % of control. For the same molecule, the T/C (dose: 23.0 mg/kg/injection, schedule: Q03DX Z (ip), vehicle: saline) was 116 % of control, the T/C (dose: 30.0 mg/kg/injection, schedule: Q01DX006 (iv), vehicle: saline) was 116 % of control and the T/C (dose: 30.0 mg/kg/injection, schedule: Q01DX Z (sc), vehicle: carboxymethylcellulose (CMC)) was 102 % of control. The T/C (dose: 47.0 mg/kg/injection, schedule: Q03DX Z (ip), vehicle: saline) was 119 % of control, the T/C (dose: 55.0 mg/kg/injection, schedule: Q07DX Z (ip), vehicle: saline) was 121 % of control and the T/C (dose: 60.0 mg/kg/injection, schedule: Q01DX010 (ip), vehicle: saline) was 151 % of control and 153 % of control. For the same molecule, the T/C (dose: 60.0 mg/kg/injection, schedule: Q01DX Z (im), vehicle: saline) was 110 % of control, the T/C (dose: 60.0 mg/kg/injection, schedule: Q01DX Z (ip), vehicle: carboxymethylcellulose (CMC)) was 286 % of control and the T/C (dose: 60.0 mg/kg/injection, schedule: Q01DX Z (sc), vehicle: carboxymethylcellulose (CMC)) was 110 % of control. For the same molecule, the T/C (dose: 94.0 mg/kg/injection, schedule: Q03DX Z (ip), vehicle: saline) was 121 % of control, the T/C (dose: 120.0 mg/kg/injection, schedule: Q01DX010 (ip), vehicle: saline) was 182 % of control and 215 % of control and the T/C (dose: 120.0 mg/kg/injection, schedule: Q01DX Z (im), vehicle: saline) was 100 % of control. For the same molecule, the T/C (dose: 120.0 mg/kg/injection, schedule: Q01DX Z (ip), vehicle: carboxymethylcellulose (CMC)) was 151 % of control, the T/C (dose: 120.0 mg/kg/injection, schedule: Q01DX Z (sc), vehicle: carboxymethylcellulose (CMC)) was 104 % of control and the T/C (dose: 148.0 mg/kg/injection, schedule: Q01DX Z (ip), vehicle: carboxymethylcellulose (CMC)) was 208 % of control. The T/C (dose: 219.0 mg/kg/injection, schedule: Q07DX Z (ip), vehicle: saline) was 154 % of control, the T/C (dose: 222.0 mg/kg/injection, schedule: Q01DX Z (ip), vehicle: carboxymethylcellulose (CMC)) was 298 % of control and the T/C (dose: 240.0 mg/kg/injection, schedule: Q01DX010 (ip), vehicle: saline) was 236 % of control and 263 % of control. The T/C (dose: 240.0 mg/kg/injection, schedule: Q01DX Z (ip), vehicle: carboxymethylcellulose (CMC)) was 318 % of control, the T/C (dose: 333.0 mg/kg/injection, schedule: Q01DX Z (ip), vehicle: carboxymethylcellulose (CMC)) was 353 % of control and the T/C (dose: 480.0 mg/kg/injection, schedule: Q01DX010 (ip), vehicle: saline) was 112 % of control and 268 % of control. For the same molecule, the T/C (dose: 480.0 mg/kg/injection, schedule: Q01DX Z (im), vehicle: saline) was 184 % of control, the T/C (dose: 480.0 mg/kg/injection, schedule: Q01DX Z (ip), vehicle: carboxymethylcellulose (CMC)) was 102 % of control and 242 % of control and the T/C (dose: 500.0 mg/kg/injection, schedule: Q01DX Z (ip), vehicle: carboxymethylcellulose (CMC)) was 328 % of control.
In the case of `CC(=O)OCC1OC(n2cnc3c(=O)[nH]nnc32)C(OC(C)=O)C1OC(C)=O` (stereo not drawn), the T/C (dose: 100.0 mg/kg/injection, schedule: Q01DX005 (ip), vehicle: saline) is reported as 96 % of control, the T/C (dose: 100.0 mg/kg/injection, schedule: Q01DX009 (ip), vehicle: saline) is reported as 94 % of control and the T/C (dose: 200.0 mg/kg/injection, schedule: Q01DX005 (ip), vehicle: saline) is reported as 104 % of control. The T/C (dose: 200.0 mg/kg/injection, schedule: Q01DX009 (ip), vehicle: saline) was 92 % of control and the T/C (dose: 400.0 mg/kg/injection, schedule: Q01DX009 (ip), vehicle: saline) was 99 % of control.
In the case of `Clc1ccc2nc(Cl)c(Cl)nc2c1`, the T/C [3] is reported as 91 % of control and the T/C [4] is reported as 96 % of control.
With `CNS(=O)(=O)c1cccc(C(N)=S)c1` the T/C [5] was 105 % of control, the T/C [6] was 100 % of control and the T/C [7] was 100 % of control.
With `COc1ccc(C(=O)C(C)Br)c(OCc2ccccc2)c1OC` (stereo not drawn) the T/C [8] was 107 % of control, the T/C [9] was 106 % of control and the T/C [10] was 97 % of control. The T/C [11] was 90 % of control, the T/C [12] was 98 % of control and the T/C [13] was 105 % of control.
In the case of `OC(Cc1cc(CC(O)(C(F)(F)F)C(F)(F)F)ncn1)(C(F)(F)F)C(F)(F)F`, the T/C [8] is reported as 108 % of control, the T/C [10] is reported as 97 % of control and the T/C [12] is reported as 97 % of control.
For `N#CCC1C(=O)Nc2ccccc21` (stereo not drawn), the T/C (dose: 100.0 mg/kg/injection, schedule: Q01DX001 (ip), vehicle: saline) was 101 % of control, the T/C (dose: 200.0 mg/kg/injection, schedule: Q01DX001 (ip), vehicle: saline) was 98 % of control and the T/C (dose: 400.0 mg/kg/injection, schedule: Q01DX001 (ip), vehicle: saline) was 101 % of control.
`O=c1c([N+](=O)[O-])cc([N+](=O)[O-])cn1O` was tested, and the T/C [3] was 100 % of control, the T/C [4] was 100 % of control and the T/C [14] was 90 % of control.
In the case of `COc1nc(=O)n(C2CCCO2)cc1Br` (stereo not drawn), the T/C (dose: 100.0 mg/kg/injection, schedule: Q01DX001 (ip), vehicle: other) is reported as 107 % of control, the T/C (dose: 200.0 mg/kg/injection, schedule: Q01DX001 (ip), vehicle: other) is reported as 96 % of control and the T/C (dose: 400.0 mg/kg/injection, schedule: Q01DX001 (ip), vehicle: other) is reported as 98 % of control.
`COP(=NC(C)=O)(OC)OC` was tested, and the T/C [8] was 101 % of control, the T/C [9] was 97 % of control and the T/C [10] was 101 % of control. The T/C [11] was 104 % of control, the T/C [12] was 102 % of control and the T/C [13] was 106 % of control.
With `NC(N)=N/N=C/Cc1ccccc1` the T/C (dose: 62.5 mg/kg/injection, schedule: Q01DX Z (ip), vehicle: saline) was 94 % of control.
In the case of `CCCCCCCCCCCCOc1ccc(C)cc1`, the T/C [8] is reported as 97 % of control, the T/C [9] is reported as 88 % of control and the T/C [10] is reported as 93 % of control. The T/C [11] was 88 % of control, the T/C [12] was 97 % of control and the T/C [13] was 93 % of control.
For `CC(=O)C(=Cc1ccc(Cl)c(Cl)c1)C(C)=O`, the T/C (dose: 100.0 mg/kg/injection, schedule: Q01DX009 (ip), vehicle: Klucel (hydroxypropylcellulose) (HPC)) was 100 % of control, the T/C [3] was 96 % of control and the T/C [4] was 96 % of control. For the same molecule, the T/C [14] was 86 % of control.
`O=C1CCC([N+](=O)[O-])C(c2ccc3ccccc3c2)N1` (stereo not drawn) was tested, and the T/C [5] was 95 % of control, the T/C [6] was 95 % of control and the T/C [7] was 95 % of control.
In the case of `CCCCCCCCCCCCOCCCCCCCCCCCC`, the T/C (dose: 100.0 mg/kg/injection, schedule: Q01DX009 (sc), vehicle: olive oil, sesame oil, peanut oil) is reported as 104 % of control, the T/C (dose: 100.0 mg/kg/injection, schedule: Q04DX003 (sc), vehicle: olive oil, sesame oil, peanut oil) is reported as 114 % of control and the T/C (dose: 200.0 mg/kg/injection, schedule: Q01DX009 (sc), vehicle: olive oil, sesame oil, peanut oil) is reported as 100 % of control. The T/C (dose: 200.0 mg/kg/injection, schedule: Q04DX003 (sc), vehicle: olive oil, sesame oil, peanut oil) was 106 % of control, the T/C (dose: 400.0 mg/kg/injection, schedule: Q01DX009 (sc), vehicle: olive oil, sesame oil, peanut oil) was 102 % of control and the T/C (dose: 400.0 mg/kg/injection, schedule: Q04DX003 (sc), vehicle: olive oil, sesame oil, peanut oil) was 104 % of control.
With `CC(C)CC1C(C(C)C)C=NN1C` (stereo not drawn) the T/C (dose: 50.0 mg/kg/injection, schedule: Q01DX001 (ip), vehicle: carboxymethylcellulose (CMC)) was 100 % of control, the T/C (dose: 100.0 mg/kg/injection, schedule: Q01DX001 (ip), vehicle: carboxymethylcellulose (CMC)) was 86 % of control and the T/C (dose: 200.0 mg/kg/injection, schedule: Q01DX001 (ip), vehicle: carboxymethylcellulose (CMC)) was 100 % of control. The T/C (dose: 400.0 mg/kg/injection, schedule: Q01DX001 (ip), vehicle: carboxymethylcellulose (CMC)) was 94 % of control.
`CCCC(C)C(=O)Nc1cccc(OC(=O)NC(C)C)c1` (stereo not drawn) was tested, and the T/C [9] was 89 % of control, the T/C [11] was 87 % of control and the T/C [13] was 92 % of control.
`CC(C)=CCC(/C=N/N=C(N)N)C(C)C` (stereo not drawn) was tested, and the T/C (dose: 3.0 mg/kg/injection, schedule: Q01DX Z (ip), vehicle: saline) was 96 % of control, the T/C [1] was 105 % of control and the T/C [2] was 91 % of control. For the same molecule, the T/C (dose: 15.0 mg/kg/injection, schedule: Q01DX Z (oral), vehicle: saline) was 104 % of control, the T/C (dose: 30.0 mg/kg/injection, schedule: Q01DX Z (ip), vehicle: saline) was 94 % of control and the T/C (dose: 30.0 mg/kg/injection, schedule: Q01DX Z (oral), vehicle: saline) was 101 % of control. The T/C (dose: 60.0 mg/kg/injection, schedule: Q01DX Z (oral), vehicle: saline) was 87 % of control.
